For orientation: aqueous solubility means the concentration that dissolves in the medium under given conditions.

Converted amounts (≈) assume the structure as drawn.

Experimental findings from the Biogen ADME set (Fang et al. 2023) are described below.

For the series the following is noted: for aqueous solubility: pH 6.8.

Take `CC[C@@H]1[C@H](F)C(=O)N[C@@H]1COc1nccc2cc(C(N)=O)c(OC)cc12`: the MDR1-MDCK efflux ratio came out at 61.7; the intrinsic clearance, human liver microsomes is 35 mL/min/kg; the intrinsic clearance, rat liver microsomes was found to be 218 mL/min/kg; the aqueous solubility stood at 53.6 µg/mL (≈ 148 µM).
The matching figures for `Cc1nc(N)c2c(C(F)(F)F)cc(C3CCN(C(=O)Cc4ccc(F)cc4)CC3)nc2n1`: 28.5, 50.3 mL/min/kg, 874 mL/min/kg and 59.6 µg/mL (≈ 133 µM).
Take `NC(=O)c1cnc(NC2CC2)nc1CCNC(=O)C1(c2cccc(F)c2)CCOCC1`: the MDR1-MDCK efflux ratio is 32.6; the intrinsic clearance, human liver microsomes amounted to 37.7 mL/min/kg; the intrinsic clearance, rat liver microsomes is 88.6 mL/min/kg; the aqueous solubility worked out at 77.3 µg/mL (≈ 181 µM).
In the case of `CC1CCN(CCNC(=O)c2ccncc2)CC1`, the MDR1-MDCK efflux ratio stood at 2.3; the intrinsic clearance, human liver microsomes is at most 4.74 mL/min/kg; the intrinsic clearance, rat liver microsomes was 490 mL/min/kg; the aqueous solubility was found to be 34.2 µg/mL (≈ 138 µM).
For the compound `O=C(NCC1=CCCN(Cc2cc(F)ccc2Cl)C1)c1ccco1`, the MDR1-MDCK efflux ratio is 0.69; the intrinsic clearance, human liver microsomes stood at 200 mL/min/kg; the intrinsic clearance, rat liver microsomes came out at 1640 mL/min/kg; the aqueous solubility was 37.8 µg/mL (≈ 108 µM).
For the compound `CN(CCN1CCCCC1)c1cncc(C(N)=O)n1`, the MDR1-MDCK efflux ratio turned out to be 4.41; the intrinsic clearance, human liver microsomes is at most 4.74 mL/min/kg; the intrinsic clearance, rat liver microsomes turned out to be 95.2 mL/min/kg.
Consider `CN1CCN(C(=O)C2(NC(=O)c3cc(Cl)c4c(c3)OCO4)CCCC2)CC1`, for which the intrinsic clearance, human liver microsomes is at most 4.74 mL/min/kg; the intrinsic clearance, rat liver microsomes came to 37.7 mL/min/kg; the aqueous solubility is 79 µg/mL (≈ 201 µM).
For `CC1(C)Cc2cc(NC(=O)c3cnn4cccnc34)c(N3CCN(CC(F)F)CC3)nc2O1`, the MDR1-MDCK efflux ratio worked out at 7.71; the intrinsic clearance, human liver microsomes was determined as 18.6 mL/min/kg; the intrinsic clearance, rat liver microsomes was 121 mL/min/kg; the aqueous solubility stood at 76.9 µg/mL (≈ 168 µM).
The matching figures for `C#CCNC(=O)c1ccc2c(c1)OCO2`: 0.809, 14 mL/min/kg, 34.4 mL/min/kg and 26 µg/mL (≈ 128 µM).
As to `CN1CCN(c2ccc(NC(=O)c3ccc(S(=O)(=O)N4CCCc5ccccc54)cc3)cc2)CC1`, the MDR1-MDCK efflux ratio worked out at 8.78; the intrinsic clearance, human liver microsomes was 526 mL/min/kg; the intrinsic clearance, rat liver microsomes amounted to 727 mL/min/kg; the aqueous solubility was 10.1 µg/mL (≈ 20.6 µM).
`C=CC(=O)Nc1cccc(Oc2nc(Nc3ccc(N4CCN(C)CC4)cc3)nc3ccsc23)c1`: the MDR1-MDCK efflux ratio was 85.5; the fraction unbound, human plasma stood at 0.00892; the fraction unbound, rat plasma amounted to 0.00491; the intrinsic clearance, human liver microsomes was 9.79 mL/min/kg. The same compound came in with an intrinsic clearance, rat liver microsomes of 210 mL/min/kg.
Consider `Cc1ccc(CN(C)C(=O)c2cn(Cc3ccccc3F)nn2)cc1`, for which the MDR1-MDCK efflux ratio came to 0.764; the intrinsic clearance, human liver microsomes amounted to 64.8 mL/min/kg; the intrinsic clearance, rat liver microsomes was found to be 1090 mL/min/kg; the aqueous solubility worked out at 11.4 µg/mL (≈ 33.7 µM).
In turn, `Cc1nc(C)c(C(=O)Nc2ccc3ncccc3c2)o1` came in with an intrinsic clearance, human liver microsomes of 13.4 mL/min/kg and an intrinsic clearance, rat liver microsomes of 34.8 mL/min/kg.
With `COc1ccc(-c2nn(C)c3ccccc23)c(OC)c1OC`, the MDR1-MDCK efflux ratio came to 0.515; the intrinsic clearance, human liver microsomes was determined as 95.4 mL/min/kg; the intrinsic clearance, rat liver microsomes worked out at 1270 mL/min/kg.
`O=C(NC[C@]1(O)CCN(Cc2cccs2)C[C@H]1O)c1c[nH]cn1` returned an intrinsic clearance, human liver microsomes of at most 4.74 mL/min/kg and an intrinsic clearance, rat liver microsomes of at most 10.7 mL/min/kg.
With `CCC(=O)N(C)CC(=O)Nc1cccc(F)c1`, the MDR1-MDCK efflux ratio is 0.705; the intrinsic clearance, human liver microsomes was at most 4.74 mL/min/kg; the intrinsic clearance, rat liver microsomes was determined as 12.2 mL/min/kg; the aqueous solubility amounted to 44.8 µg/mL (≈ 188 µM).
The matching figures for `COCCNc1ncnc2ccsc12`: 0.711, at most 4.74 mL/min/kg, 22.9 mL/min/kg and 40.8 µg/mL (≈ 195 µM).
In turn, `Cc1ccc2cc(C(=O)N(C)CCC#N)[nH]c2c1` came in with an intrinsic clearance, human liver microsomes of 61.8 mL/min/kg; an intrinsic clearance, rat liver microsomes of 122 mL/min/kg; an aqueous solubility of 4 µg/mL (≈ 16.6 µM).
In the case of `Cc1nc(N(C)C)nc(C)c1NC(=O)C1CCCCC1`, the MDR1-MDCK efflux ratio worked out at 0.656; the intrinsic clearance, human liver microsomes is 6.25 mL/min/kg; the intrinsic clearance, rat liver microsomes was determined as 75.4 mL/min/kg; the aqueous solubility was 49.3 µg/mL (≈ 179 µM).
In turn, `CCOc1ccc(NC(=O)c2ccc3c(c2)NC(=O)CO3)cc1` showed an intrinsic clearance, human liver microsomes of at most 4.74 mL/min/kg and an intrinsic clearance, rat liver microsomes of 459 mL/min/kg.
As to `COC1CCN(C(=O)Nc2cc(C(F)(F)F)cc(C(F)(F)F)c2)CC1`, the MDR1-MDCK efflux ratio worked out at 0.476; the intrinsic clearance, human liver microsomes worked out at 60 mL/min/kg; the intrinsic clearance, rat liver microsomes was 158 mL/min/kg; the aqueous solubility came to 71.4 µg/mL (≈ 193 µM).
The corresponding values for `COc1cc2c(cc1OC)-c1cc3ccc(OC)c(OC)c3c[n+]1CC2` are 22.5, at most 4.74 mL/min/kg, 23.4 mL/min/kg and 54.1 µg/mL.
Consider `Cc1nsc(Nc2ccccc2)c1C#N`, for which the MDR1-MDCK efflux ratio stood at 0.367; the intrinsic clearance, human liver microsomes worked out at 300 mL/min/kg; the intrinsic clearance, rat liver microsomes stood at 782 mL/min/kg.
The compound `CCc1noc(COc2c(C)ccnc2Cl)n1` registered an aqueous solubility of 23.3 µg/mL (≈ 91.8 µM).
Consider `CC(=O)N1CCN([C@H]2CCN(C(=O)c3cc4cc(C)ccc4o3)CC[C@@H]2O)CC1`, for which the MDR1-MDCK efflux ratio was determined as 38.8; the intrinsic clearance, human liver microsomes worked out at 7.28 mL/min/kg; the intrinsic clearance, rat liver microsomes turned out to be 153 mL/min/kg.
For the compound `CO[C@H]1COCCN(C(=O)c2cccnc2)C1`, the MDR1-MDCK efflux ratio was determined as 1.2; the intrinsic clearance, human liver microsomes was at most 4.74 mL/min/kg; the intrinsic clearance, rat liver microsomes was at most 10.7 mL/min/kg; the aqueous solubility stood at 34.8 µg/mL (≈ 147 µM).
The matching figures for `CCC(=O)NCc1cc(C2CC2)n(C2CCCC2)n1`: 1.05, 10.1 mL/min/kg, 218 mL/min/kg and 25 µg/mL (≈ 95.7 µM).
As for `Cc1cccc(NC(=O)c2cccnc2N2CCCCC2)n1`, the MDR1-MDCK efflux ratio is 0.697; the intrinsic clearance, human liver microsomes was determined as 120 mL/min/kg; the intrinsic clearance, rat liver microsomes came out at 1670 mL/min/kg; the aqueous solubility was 27.6 µg/mL (≈ 93.1 µM).
With `O=C1CCC(=O)N1Cc1nc(C23CC4CC(CC(C4)C2)C3)cs1`, the intrinsic clearance, human liver microsomes was found to be 105 mL/min/kg; the intrinsic clearance, rat liver microsomes stood at 1400 mL/min/kg; the aqueous solubility came to 42.8 µg/mL (≈ 129 µM).
In the case of `C(=C\c1ccccc1)/CNCc1ccc2c(c1)OCO2`, the MDR1-MDCK efflux ratio stood at 0.337; the intrinsic clearance, human liver microsomes is 38.9 mL/min/kg; the intrinsic clearance, rat liver microsomes came out at 573 mL/min/kg; the aqueous solubility amounted to 40.1 µg/mL (≈ 150 µM).
The matching figures for `CCc1ccccc1NC(=O)CCn1ccnc1-c1ccc2c(c1)OCO2`: 22.1, 126 mL/min/kg, 891 mL/min/kg and 42 µg/mL (≈ 116 µM).
For `c1nn(C2CCOCC2)cc1Nc1ncc2nnn(-c3ccc4cn[nH]c4c3)c2n1`, the MDR1-MDCK efflux ratio came to 531; the intrinsic clearance, human liver microsomes was determined as 96.8 mL/min/kg; the intrinsic clearance, rat liver microsomes amounted to 765 mL/min/kg.
For `Cc1nnc(-c2ccc3occ(-c4ccc(S(C)=O)cc4)c3c2)o1` (stereo not drawn), the MDR1-MDCK efflux ratio amounted to 1.98; the fraction unbound, human plasma turned out to be 0.0156; the fraction unbound, rat plasma worked out at 0.12; the intrinsic clearance, human liver microsomes was at most 4.74 mL/min/kg. Besides, the intrinsic clearance, rat liver microsomes worked out at 61.5 mL/min/kg and the aqueous solubility was 44.8 µg/mL (≈ 132 µM).
For `Fc1cccc(CN2CCN(c3ncccn3)CC2)c1`, the MDR1-MDCK efflux ratio was determined as 0.527; the intrinsic clearance, human liver microsomes stood at 111 mL/min/kg; the intrinsic clearance, rat liver microsomes worked out at 1120 mL/min/kg; the aqueous solubility turned out to be 38 µg/mL (≈ 140 µM).
`CCOc1ccccc1N/C=C1\C(=O)Oc2ccccc2C1=O` yielded an aqueous solubility of 0.66 µg/mL (≈ 2.13 µM).
Take `CCc1cc2c(OCC(=O)N3CCCC3)ncnc2s1`: the intrinsic clearance, human liver microsomes turned out to be 25.8 mL/min/kg and the intrinsic clearance, rat liver microsomes came out at 597 mL/min/kg.
`O=C(c1ccco1)N1CCCC(C(=O)N2CCc3ccccc3C2)C1` (stereo not drawn) returned an aqueous solubility of 69.8 µg/mL (≈ 206 µM).
As for `O=C(O)CCC(=O)Nc1ccccc1-c1nc2ccccc2[nH]c1=O`, the MDR1-MDCK efflux ratio amounted to 0.345; the intrinsic clearance, human liver microsomes was at most 4.74 mL/min/kg; the intrinsic clearance, rat liver microsomes is at most 10.7 mL/min/kg; the aqueous solubility was 60.7 µg/mL (≈ 180 µM).
In the case of `CCc1nc2c(C)cc(N3CCN(CC(=O)N4CC(O)C4)CC3)cn2c1N(C)c1nc(-c2ccc(F)cc2)c(C#N)s1`, the MDR1-MDCK efflux ratio was determined as 97.9; the fraction unbound, human plasma was found to be 0.00624; the fraction unbound, rat plasma worked out at 0.00368; the intrinsic clearance, human liver microsomes is 108 mL/min/kg. The compound also had an intrinsic clearance, rat liver microsomes of 557 mL/min/kg and an aqueous solubility of 60.3 µg/mL (≈ 102 µM).
As to `CCC(CC)NC(=O)c1cc(C)nc2onc(C)c12`, the MDR1-MDCK efflux ratio stood at 1.34; the intrinsic clearance, human liver microsomes was at most 4.74 mL/min/kg; the intrinsic clearance, rat liver microsomes was at most 10.7 mL/min/kg; the aqueous solubility was 45.5 µg/mL (≈ 174 µM).
For the compound `CONC(=O)c1c(C)nn(C)c1Cl`, the MDR1-MDCK efflux ratio was found to be 0.868; the intrinsic clearance, human liver microsomes is at most 4.74 mL/min/kg; the intrinsic clearance, rat liver microsomes was at most 10.7 mL/min/kg.
Consider `COc1ccc(C(C)(C)C)cc1NC(=O)C1(C#N)CCCC1`, for which the MDR1-MDCK efflux ratio came to 0.478 and the aqueous solubility is 0.3 µg/mL (≈ 0.999 µM).
As for `FC(F)(F)COc1ccc(CN2CCc3c(cnn3-c3ccccc3)C2)nn1`, the MDR1-MDCK efflux ratio worked out at 0.59; the intrinsic clearance, human liver microsomes was 22.6 mL/min/kg; the intrinsic clearance, rat liver microsomes was 79.3 mL/min/kg; the aqueous solubility is 52.1 µg/mL (≈ 134 µM).
As to `O=C1NCCCCC1NC(=O)N1CCc2sccc2C1` (stereo not drawn), the MDR1-MDCK efflux ratio was 4.48; the intrinsic clearance, human liver microsomes amounted to 4.84 mL/min/kg; the intrinsic clearance, rat liver microsomes was 47 mL/min/kg; the aqueous solubility stood at 49.6 µg/mL (≈ 169 µM).
